Where two headings read alike, the source gives them in different places.
Experiments:
In vivo pharmacokinetics = experiment: In vivo pharmacokinetics; parameters: species or system Sprague-Dawley rats; conditions: both sexes, Sprague-Dawley, rat; for Tmax: plasma; for AUC: dose-corrected plasma AUC; for Cmax: dose-corrected plasma Cmax
Protocol: Administration of exemplary compounds by selected routes followed by blood collection and compound quantification in plasma was used to determine the pharmacokinetic (PK) profile of the compounds. Compounds were administered to mixed-sex Sprague-Dawley rats of at least 250 grams by dissolving the test compound in DMSO and then diluting the compound into an appropriate vehicle, either saline or saline and poly-ethylene glycol. Dosing was accomplished by either tail vein puncture (IV) or oral gavage (PO), and animals were administered compound according to their weight at 1 mL/kg. At selected intervals following administration (10, 20, 40, 60, 120, and 360 minutes), blood was collected by tail vein blood draw. Whole blood was then processed by centrifugation to produce plasma. Compound content in plasma samples was quantified by LC-MS/MS and compared to an internal standard and standard curves to determine concentration accurately. Plasma concentrations were then averaged for each time point and plotted as a function of time. Area under the curve was calculated by integration of the curve, Cmax was the highest concentration achieved in plasma, and Tmax was determined by the timing of Cmax.

[1] = In vitro stability in rat plasma; type: in vitro ADME; conditions: 5 μM, 37° C.
Protocol: (§1) Bioavailability can be estimated by compound stability when exposed to conditions in the body. As an initial assessment of stability properties in a variety of conditions present in animals, exemplary compounds were tested for stability in a battery of simulated body compartments. Compounds were tested for stability in the following solutions: simulated gastric fluid (SGF: 34.2 mM NaCl, pH 1.2), simulated gastric fluid with the digestive enzyme pepsin (SGF+Enzyme: SGF with 3.2 mg/ml pepsin), simulated intestinal fluid with the mixture of enzymes in porcine pancreatin (SIF+Enzyme: 28.7 mM NaH2PO4, 105.7 mM NaCl, pH 6.8, 10 mg/ml pancreatin), rat plasma, and human plasma.
(§2) Test compounds were incubated at a final concentration of 5 μM in the above solutions at 37° C. with samples removed at the following time points: 0, 1, 2, and 4 hours. Reactions were stopped and prepared for quantification by addition of excess quench solution containing an internal standard (acetonitrile, 200 ng/mL bucetin). Test compound and internal standard in each sample was quantified by LC-MS/MS, and after internal normalization to bucetin, test compound concentration was expressed as a percentage of concentration at the 0-hour time point. Stability in the relevant test solution was then determined by the percent remaining at the 4-hour time point.

[2] = Parallel artificial membrane permeability assay (PAMPA); type: in vitro ADME; conditions: PBS, room temperature
Protocol: Bioavailable drugs must permeate the cellular membranes of the lining of the digestive tract. To estimate the penetrability of exemplary compounds, the in vitro parallel artificial membrane permeability assay (PAMPA) was utilized.
Test compounds must have a standard curve in the final read plate to determine partitioned concentration of each drug. A 6-point standard curve was prepared for each compound from 0 to 200 μM in phosphate-buffered saline (PBS).
Test compound solution (300 μL in PBS) was added to the donor (bottom) well of the PAMPA plate in 5 replicates and PBS vehicle (200 μL) was added to the acceptor (top) wells of appropriate wells to match the loading of the donor plate. The bottom and top of the PAMPA plates were then sandwiched together. The PAMPA plates were then incubated at room temperature for 5 hours. After incubation, 150 μL of donor solution was added to a UV compatible plate containing the corresponding standard curve. 150 μL of acceptor well solution was added adjacent to the corresponding standard curve and donor well samples for that compound. The plate was then read using a UV plate reader.
Permeability and membrane retention were then calculated based on the following formulas:
Permeability (cm/s): (Pe)(cm/s)={−ln [1−CA(t)/Ceq]}/[A*(1/VD+1/VA)*t] (equation 1) • where: • A=filter area (0.3 cm^2); • VD=donor well volume (0.3 mL); • VA=acceptor well volume (0.2 mL); • t=incubation time (seconds); • CA(t)=compound concentration in acceptor well at time t; • CD(t)=compound concentration in donor well at time t; and • Ceq=[CD(t)*VD+CA(t)*VA]/(VD+VA).
Membrane Retention (R)=1−[CD(t)*VD+CA(t)*VA]/(C0*VD) (equation 2) • where: • CD(t), VD, CA(t), and VA are as defined for equation 1, and • C0=initial concentration in donor well (200 uM).

[3] = In vitro stability in human plasma; type: in vitro ADME; conditions: 5 μM, 37° C.
Protocol: as §1, §2

HepG2 cells = experiment: Cytotoxicity assay (LDH release); type: cell-based; conditions: 48 hours, 0.1 to 100 μM
Protocol: This experiment was designed to obtain a preliminary assessment of cytotoxicity.
HepG2 cells were plated in 96-well cell culture plates and allowed to attach overnight at 37° C., 5% CO2 in EMEM+10% FBS. Treatments were made in complete media (EMEM+10% FBS) and included a dilution series of test compounds from 0.1 to 100 μM. Known cytotoxin cerivastatin was used as a positive assay control and prepared at a final concentration of 0.5 μM.
Growth media was replaced with treatment media (EMEM+10% FBS containing test compound dissolved in DMSO) and cells were incubated with test compounds for 48 hours. At the end of the incubation period, supernatant media from each well was transferred to a new plate and LDH assay working solution was added. LDH assay solution undergoes a colorimetric reaction in proportion to the amount of lactate dehydrogenase (an intracellular protein that was only found in the media in the presence of lysed cells) in the media. Color reaction was quantified by measurement of absorbance at a wavelength of 490 nm.
The signal range of the assay was determined by no manipulation in a negative control treatment and full lysis of all cells in a lysis control sample. Compounds that increase the level of cytotoxicity more than 20% above negative control samples were considered cytotoxic in this assay.

[4] = Oral availability calculation; type: in vivo, Sprague-Dawley rats; conditions: both sexes, Sprague-Dawley, plasma; rat, dose corrected AUC PO / dose corrected AUC IV x 100
From the text: Oral bioavailability is critical to developing small molecule therapeutics for oral administration. Calculations of oral bioavailability (% F) are accomplished by comparing in vivo pharmacokinetic data (Example B7) using IV dosing as the maximum possible exposure and determining the exposure rate after PO administration. In these studies, dose corrected AUC from PO administration was divided by dose corrected AUC from IV administration and multiplied by 100 to yield the % F. Results are shown in Table 9.

[5] = IV (tail vein), read-out: TMAX IV
[6] = PO (oral gavage), read-out: TMAX PO
[7] = IV (tail vein), read-out: AUC IV
[8] = IV (tail vein), read-out: CMAX IV
[9] = PO (oral gavage), read-out: AUC PO
[10] = PO (oral gavage), read-out: CMAX PO

Compound | Tmax (In vivo pharmacokinetics; [5]) [min] | Tmax (In vivo pharmacokinetics; [6]) [min] | AUC (In vivo pharmacokinetics; [7]) [ng·h/mL] | Cmax (In vivo pharmacokinetics; [8]) [ng/mL] | AUC (In vivo pharmacokinetics; [9]) [ng·h/mL] | Cmax (In vivo pharmacokinetics; [10]) [ng/mL] | Rat Plasma (compound remaining after 4 hours) [1] | Papp at 5 h, 200 µM [2] [×10⁻⁶ cm/s] | Human Plasma (compound remaining after 4 hours) [3] | Cytotoxicity (HepG2 cells) | bioavailability [4] [%] | Permeability ([2]; 5 hours)
CCC(C)CN1CC2N(C(=O)c3ccc(C(F)(F)F)cc3)CCC(=O)N2[C@@H](C)C1=O (stereo partly shown) [Compound 1a] | < 30 | 30 to 60 | 100 to 999 | 1000 to 3000 | 100 to 999 | 1 to 100 | ++ (++ indicates 40-79% compound remaining after 4 hours) | > 2 | ++ (++ indicates 40-79% compound remaining after 4 hours) | ++++ (++++ indicates non-toxic at 100 μM) | 25 to 50 | 
CCC(C)CN1CC2N(C(=O)c3ccc(OC(F)F)cc3)CCC(=O)N2[C@@H](C)C1=O (stereo partly shown) [Compound 2a] | < 30 | 30 to 60 | 1000 to 3000 | 1000 to 3000 | 100 to 999 | 100 to 999 | ++ (++ indicates 40-79% compound remaining after 4 hours) | < 2 | ++ (++ indicates 40-79% compound remaining after 4 hours) | ++++ (++++ indicates non-toxic at 100 μM) | 25 to 50 | 
CCC(C)CN1CC2N(Cc3ccc(C(F)(F)F)cc3)CCC(=O)N2[C@@H](C)C1=O (stereo partly shown) [Compound 5a] | < 30 | 30 to 60 | 100 to 999 | 100 to 999 | 1 to 100 | 1 to 100 | ++ (++ indicates 40-79% compound remaining after 4 hours) | < 2 | ++ (++ indicates 40-79% compound remaining after 4 hours) | ++++ (++++ indicates non-toxic at 100 μM) | 1 to 25 | 
CCC(C)CN1CC2N(Cc3ccc(OC(F)F)cc3)CCC(=O)N2[C@@H](C)C1=O (stereo partly shown) [Compound 6a] | < 30 | 30 to 60 | 1000 to 3000 | 1000 to 3000 | 1 to 100 | 1 to 100 | +++ (+++ indicates 80-99% compound remaining after 4 hours) | < 2 | ++ (++ indicates 40-79% compound remaining after 4 hours) | ++++ (++++ indicates non-toxic at 100 μM) | 1 to 25 | 
CCC(C)CN1CC2N(Cc3ccc(O)nc3)CCC(=O)N2[C@@H](C)C1=O (stereo partly shown) [Compound 7a] | < 30 | 30 to 60 | > 3000 | > 3000 | 1 to 100 | 1 to 100 |  | > 10 |  | ++++ (++++ indicates non-toxic at 100 μM) | < 1 | 
CCC(C)CN1CC2N(C(=O)c3ccc(O)cc3)CCC(=O)N2[C@@H](C)C1=O (stereo partly shown) [Compound 8a] |  |  |  |  |  |  | ++++ (++++ indicates 100% compound remaining after 4 hours) |  | ++ (++ indicates 40-79% compound remaining after 4 hours) | ++++ (++++ indicates non-toxic at 100 μM) |  | + (+ indicates permeability above 1 × 10^−5 cm/s)
CCC(C)CN1CC2N(C(=O)c3ccc(F)cc3)CCC(=O)N2C(C)C1=O (stereo not shown) [Compound 11, 1-(4-fluorobenzoyl)-6-methyl-8-(2-methylbutyl)hexahydro-4H-pyrazino[1,2-a]pyrimidine-4,7(6H)-dione] | < 30 | < 30 | 1000 to 3000 | 100 to 999 | 100 to 999 | 100 to 999 | ++++ (++++ indicates 100% compound remaining after 4 hours) | > 2 | +++ (+++ indicates 80-99% compound remaining after 4 hours) | ++++ (++++ indicates non-toxic at 100 μM) | 25 to 50 | 
CCCCN1CC2N(C(=O)c3ccc(OC(F)F)cc3)CCC(=O)N2C(C)C1=O (stereo not shown) [Compound 17] |  |  |  |  |  |  | ++ (++ indicates 40-79% compound remaining after 4 hours) | > 2 | +++ (+++ indicates 80-99% compound remaining after 4 hours) | ++++ (++++ indicates non-toxic at 100 μM) |  | 
CC1C(=O)N(CCC2CCCC2)CC2N(C(=O)c3ccc(C(F)(F)F)cc3)CCC(=O)N12 (stereo not shown) [Compound 19] |  |  |  |  |  |  | +++ (+++ indicates 80-99% compound remaining after 4 hours) | < 2 | +++ (+++ indicates 80-99% compound remaining after 4 hours) | ++++ (++++ indicates non-toxic at 100 μM) |  | 
